In ChEMBL document CHEMBL5584358, “Fungal Coculture of Herpotrichia sp. and Trametes versicolor Induces Production of Diverse Metabolites with Anti-Parkinson's Neuroprotective Activity” (J Nat Prod, 2024) one finds Activity and viability data, which are given here for 16 compounds.

Data set [1] relates to PC-12. In words: Cytotoxicity against rat PC12 cells assessed as effect on cell viability at 20 uM measured after 24 hrs by CCK-8 assay. The settings on record: pc-12, 24 h. The format is toxicity, cell-based. A general note: Formazan colour is commonly taken as a measure of viable cells.
Data set [2] deals with PC-12. The data set can be described thus: Neuroprotective activity against MPP+-induced rat PC12 cell death assessed as cell viability at 20 uM preincubated for 1 hr followed by MPP+ addition and measured after 24 hrs by CCK-8 assay (reference value: 57%). The format is functional. The settings on record: time 25 hrs, read-out: Activity.
Data set [3] relates to PC-12. The data set can be described thus: Neuroprotective activity against MPP+-induced rat PC12 cell death assessed as increase in cell viability preincubated for 1 hr followed by MPP+ addition and measured after 24 hrs by CCK-8 assay. The format is functional, cell-based. The settings on record: dose 1-20 µM, time 25.0 hrs.
Data set [4] relates to PC-12. The data set can be described thus: Neuroprotective activity against MPP+-induced rat PC12 cell death assessed as increase in cell viability at […] preincubated for 1 hr followed by MPP+ addition and measured after 24 hrs by CCK-8 assay. Type of data set: functional, cell-based. The settings on record: time 25.0 hrs.

The source made the active and inactive calls. The calls are words filed in the database; no cut-off is given here.

As for `C=C1CC[C@H]2[C@](C)(CO)CC[C@@H](O)[C@]2(C)[C@H]1CO`, the Activity entry in the data set on PC-12 [1] was “Non-Toxic”.
For the compound `CCC[C@H](O[C@@H]1OC[C@@H](O)[C@H](O)[C@H]1O)c1c(OC)cc(=O)oc1C`, in the data set with PC-12 [1], the Activity result is on record as “Non-Toxic”.
Turning to `CC(=O)[C@H]1CC[C@H]2C3=CC(=O)[C@H]4C[C@H](O)CC[C@]4(C)[C@H]3[C@H](O)C[C@]12C`, the viability at 20 µM in the data set with PC-12 [2] was 69%. Also, the results for the Activity result in the data set with PC-12 [1] and with PC-12 [3] were “Non-Toxic” and “Dose-Dependent Effect”, respectively.
On to `CCC[C@H](O)c1c(OC)cc(=O)oc1C`, for which the Activity entry with PC-12 [1] is listed as “Non-Toxic”.
With `C=CC1(C)CC/C=C(/C)CCC(C(C)(C)O)O1` (centres undefined) [NEROPLOMACROL], in the data set on PC-12 [2], the viability at 20 µM was found to be 69%. The Activity result with PC-12 [1] was “Non-Toxic”; in the data set on PC-12 [3], “Dose-Dependent Effect”.
For `CC1=C[C@@](C)(O)[C@H](C)O[C@H]1/C(C)=C/C=C/C=C/C=C/[C@@]1(C)C2OC(=O)C1(C)C(=O)C2C` (some centres undefined), in the data set on PC-12 [1], the Activity entry is given as “Non-Toxic”.
For `CC(C)=CC[C@H](O)[C@@](C)(O)[C@@H](O)C/C=C(/C)[C@H](O)CO`, the Activity result in the data set on PC-12 [1] is recorded as “Non-Toxic”.
On to `CC(=O)[C@H]1CC[C@H]2C3=C[C@H](O)[C@H]4C[C@H](O)CC[C@]4(C)[C@H]3[C@H](O)C[C@]12C`, for which the viability at 20 µM in the data set on PC-12 [2] came to 68%. For the same compound, the Activity result in the data set with PC-12 [1] is “Non-Toxic”; with PC-12 [3], “Dose-Dependent Effect”.
Consider `COc1cc(=O)oc(C)c1/C=C/CCOC(C)=O`, for which the Activity entry in the data set with PC-12 [1] was “Non-Toxic”.
As to `C=C1CC[C@@H](C(C)(C)O)[C@@H]2C[C@H](C)[C@@H](O)C[C@@H]12`, the viability at 20 µM in the data set with PC-12 [2] stood at 72%. Further, the Activity result in the data set on PC-12 [1] is “Non-Toxic”; with PC-12 [3] it was “Dose-Dependent Effect”.
`Cc1ccc([C@@H](C)[C@@H](C[C@@H](O)C(C)(C)O)O[C@@H]2OC[C@@H](O)[C@H](O)[C@H]2O)cc1`: the Activity result in the data set with PC-12 [1] is given as “Non-Toxic”.
For the compound `CC/C=C/c1c(OC)cc(=O)oc1CO`, the Activity entry in the data set with PC-12 [1] is “Non-Toxic”.
Take `CC(CO)[C@@H]1CC[C@@](C)(O)[C@@H]2CCC(CO)=C[C@H]21` (some centres undefined): the result in the data set with PC-12 [4] was Active. Further, in the data set on PC-12 [2], the viability at 20 µM was 69%. For the same compound, the values for the Activity result with PC-12 [1] and in the data set on PC-12 [3] were “Non-Toxic” and “Dose-Dependent Effect”, respectively.
With `C=CC(C)(O)C(O)CC(O)C(C)(O)CCC=C(C)C` (centres undefined), the Activity result with PC-12 [1] is given as “Non-Toxic”.
As for `CC(=O)[C@H]1CC[C@@]2(O)C3=CC(=O)[C@@H]4C[C@H](O)CC[C@]4(C)[C@H]3C[C@@H](O)[C@]12C`, in the data set on PC-12 [2], the viability at 20 µM is 72%. Further, the Activity entry with PC-12 [1] is “Non-Toxic”; with PC-12 [3], “Dose-Dependent Effect”.
`CC1=C[C@](C)(O)[C@H](C)O[C@H]1/C(C)=C/C=C/C=C/C=C/[C@@]1(C)C2OC(=O)C1(C)C(=O)C2C` (some centres undefined): the Activity result in the data set on PC-12 [1] was “Non-Toxic”.
